Tests used:
[1] = test system: Japan white breeding rabbits; conditions: rabbit, in vivo
Protocol: Six medically inspected Japan white breeding rabbits (conventional) were given a haircut along the spine and 6 spots of 2x3 cm each were closed patched with 0.5 g of Composition No.6 powder or 0.25 g of a powder of the compound represented by chemical formula 2 using bandage and gauze. Evaluation was conducted for the degree of erythema, scab formation and edema formation at a time interval of after 4 hours, 1 day, 2 days, 3 days, 4 days and 5 days.
Evaluation standard (Draize method)
From the above table, the following primary irritancy was obtained. Irritation index was obtained from Equation 1. Irritation index was obtained from the following table. Irritation index and safety classification are as follows. [formula]
Evaluation was conducted according to the method employed in Example 6.

[2] = cited from earlier work; for solubility in water: temperature not given
[3] = Elution test of microcapsule powder in Isopal G; type: physicochemical; conditions: unencapsulated compound of chemical formula 1, temperature not given
Protocol: Elution test was conducted on microcapsule powder using Isopal G (aliphatic solvent EXXON Chemical company) which dissolves the compound of the chemical formula 1 in an optional rate. […] of the capsule powder was added to 10ml of Isopal G, and the mixture was maintained at room temperature or at 40 °C for 12 hours, and the amount of the compound of the chemical formula 1 eluted from the microcapsules was determined by gas chromatography. The rate of elution (active ingredient in Isopal G/added amount of active ingredient) was calculated.

| Structure (SMILES) | Skin irritation, safety classification (irritation index) [1] | water solubility (25 °C) [2] | solubility in water [2] [ppm] | rate of elution (active ingredient in Isopal G/added amount of active ingredient) [3] [% elution] |
| --- | --- | --- | --- | --- |
| CCCCCCCCn1sc(Cl)c(Cl)c1=O [Compound of formula 4, 4,5-Dichloro-2-n-octyl-4-isothiazoline-3-one] | strong irritation | 6 ppm |  |  |
| N#CSCSc1nc2ccccc2s1 [Compound of the chemical formula 7, thiocyano methylthiobenzothiazol] | medium irritant |  | 100 |  |
| S=C=Nc1ccc(Cl)c(Cl)c1 [Unencapsulated, 3,4-dichlorophenyl-isothiocyanate] |  |  |  | 100 |
| O=S1(=O)CC(Cl)(Cl)C(Cl)(Cl)C1 [compound of the chemical formula 2, Tetrachlorotetrahydrothiophene-1,1-dioxide] |  | about 900 ppm |  |  |
| CNC(=O)Oc1cccc2c1OC(C)(C)C2 [compound of the chemical formula 6, 2,3-dihydro-2,2-dimethylbenzofuran-7-yl-methylcarbamate] |  |  | 700 |  |

Reference: patent publication EP0686425A1, “PROCESS FOR PRODUCING MICROCAPSULE OF HYDROPHOBIC DRUG” (SANSUI CO., LTD., priority 1993, dated 1995)
